Reference: US20090036495A1, “Combinations Comprising Alpha-2-Delta Ligands and Ep4 Receptor Antagonists” (Pfizer, Inc., priority 2004, published 2009)

Tested on: Male Sprague-Dawley rats
Assay: Carrageenan-induced mechanical hyperalgesia (CIMH), paw withdrawal threshold
Assay type: in vivo
Settings: rat, per orally
Experimental: Carrageenan-induced mechanical hyperalgesia (CIMH)[1] is utilized to evaluate analgesic activity of drugs against acute inflammatory pain.
1% carrageenan is prepared at least two days before use. An appropriate amount of λ-carrageenain is weighed into a 10 ml screw vial. Sterile saline is added to make 1% (w/v) suspension solution and the suspension is stirred for 8 hours with gentle heating to be dissolved obtain homogeneous suspension.
Male Sprague-Dawley rats, 4 W (Japan SLC or Charles River Japan), 100-130 g are used. Environment conditions are controlled at a 12-h light/dark cycle with (lights on 076:00 a.m.). and an ambient temperature of 23+/−2 deg. C. Prior to start the experiment, animals are housed under this condition for 4-5 days. Each group is used a group of 6-8 rats. The rats are fasted for 16-18 hours before use and the rats are trained for measurement of mechanical threshold using the apparatus for two days before use.
The paw withdrawal response of the rat to increased pressure on a right hindpaw is recorded as mechanical threshold. The threshold is defined as “pre value”. Hyperalgesia is induced by intraplantar injection of 0.1 ml of 1% carrageenain in the right hindpaw. The paw withdrawal threshold is measured at 3.5 and 4.5 hours after the carrageenan injection. Rats are randomly grouped by the paw withdrawal threshold at 4.5 hours and pre value after the carrageenan injection. Vehicle or test compounds (10 ml of 0.1% methylcellulose/1 kg body weight) are given per orally at 5.5 hours after the carrageenain injection. The paw withdrawal Mechanical threshold is measured by an analgesy meter at 4, 5, 6.5 and 7.5 hours after the carrageenin carrageenan injection. The threshold at 6.5 or 7.5 hours is determined as ‘post value’.
% change in threshold=(preost value−postre value)/(pre value)×100% inhibition=(B−A)/(C−A)×100
A=average of % change in threshold post values in disease control (vehicle treated) group B=average of % change in threshold post values in compound treated group C=average of pre values of all rats used
% inhibition=(A−B)/|A|×100
The data is analyzed with unpaired t-test or one-way ANOVA (plus multiple comparison test) for % change in thresholdpost values. Results are considered significant when p<0.05 versus disease control group.

| SMILES | Inhibition (%) 2 hours post dosing (dose 0.3 mg/kg) | Inhibition (%) 2 hours post dosing (dose 1 mg/kg) | Inhibition (%) 2 hours post dosing (dose 3 mg/kg) | Inhibition (%) 2 hours post dosing (dose 10 mg/kg) | Inhibition (%) 2 hours post dosing (dose 30 mg/kg) | Inhibition (%) 2 hours post dosing (dose 100 mg/kg) |
| --- | --- | --- | --- | --- | --- | --- |
| C[C@H](NC(=O)c1cc(Cl)cnc1Oc1cccc(F)c1)c1ccc(C(=O)O)cc1 [4-[(1S)-1-({[5-chloro-2-(3-fluorophenoxy)pyridin-3-yl]carbonyl}amino)ethyl]benzoic acid] | 19.2% | 41.9% | 50% | – | – | – |
| CC(C)C[C@H](CN)CC(=O)O [Pregabalin, (S)-(+)-4-amino-3-(2-methylpropyl)butanoic acid] | – | – | 1.6% | 8.4% | 16.4% | 31% |
